The source of these data is the NIST ThermoML archive (doi:10.1016/j.jct.2011.06.009).

± gives the expanded uncertainty stated by the source.

A short description of this series: refractive index (Na D-line) (dimensionless). The conditions noted are these: 101.33 kPa, Liquid, Standard Abbe refractometry.

One may read the refractive index as the speed of light in vacuum divided by its phase velocity in the sample. Turning to `CCCCc1ccccc1` [butylbenzene], where the note is “293.1 K”, the refractive index is recorded as 1.4895 ± 0.0008.

Turning to `CCCC[n+]1ccc(C)cc1.F[B-](F)(F)F` [1-butyl-4-methylpyridinium tetrafluoroborate], for the setting “298.1 K”, the refractive index worked out at 1.4509 ± 0.0008.

Take `CCCCCCCCCCCC` [dodecane]: where the note is “293.1 K”, the refractive index is 1.422 ± 0.0008.

As to `CCCc1ccccc1` [propylbenzene], the refractive index (293.1 K) is listed as 1.4915 ± 0.0008.
